{
  "source": "patent US7019112B1",
  "about": "“Peptides recognized by melanoma-specific A1-, A2- and A3-restricted cytoxic lymphocytes, and uses therefor” (University of Virginia Patent Foundation, priority 1996, dated 2006)",
  "key": {"T2 cells": {"tested_on": "T2 cells", "assay": "Chromium release assay: reconstitution of epitopes on peptide-pulsed T2 cells for HLA-A2.1-restricted melanoma-specific CTL", "details": "for % specific release (of Cr-51), no CTL: T2 + peptide 1 μM; for reconstitution of recognition by CTL lines from 3 additional patients: 946 at 0.1–1 nM, other peptides at equal or higher concentrations, FIG. 12; for effect on epitope reconstitution: VMM5 and DM204-13 CTL, concentrations up to 10 nM; for number of CTL lines/patients recognizing the peptide: HLA-A2.1 restricted melanoma specific CTL lines", "procedure": "Cell-mediated killing was determined in vitro using a 4-h chromium release assay. 51Cr-labeled target cells were plated at 2×10^3 cells/well in triplicate on 96-well V-bottom plates (Costar, Cambridge, Mass.) with varying numbers of effector cells in a final volume of 250 microl. Wells containing either culture medium and target cells only or 1 M HCl and target cells served as background 51Cr release controls and total release controls, respectively. The plates were centrifuged at 100×g for 3 min and incubated at 37° C. in 5% CO2 for 4 h. The plates were again centrifuged, and 0.20 ml of medium from each well was removed for counting in a gamma counter. The cytotoxic index was calculated as: Cpm(experimental)−cpm(background)×100% Cpm(total release)−cpm(background) Lytic units were calculated for several of the cytotoxicity assays, using a software package prepared by the National. Cancer Institute (Bethesda, Md.), which solves for the equation y=A×[1−exp(−kx)], where x is the E:T ratio, y is the cytotoxic index, A is the curve maximum, and k is a constant used to calculate the slope of the best fit line. For the purposes of this study, a lytic unit was defined as the number of effector cells needed to mediate […] lysis of target cells. The number of lytic units was calculated per 10^5 effector cells (LU30 per 10^5 cells).\nEffector cells were added in 100 microl assay medium to give an E:T ratio of 10:1, and were incubated at 37° C. The remainder of the assay is performed as in standard chromium release assays described above. Wells containing peptide and target cells but no CTL were used as controls to rule out toxicity of the peptides themselves.\nHLA-A2.1 molecules were immunoaffinity purified from detergent lysates of the human melanoma cell line DM6. The associated peptides were released by acid extraction, separated from HLA-A2.1 and antibody by filtration, and fractionated by multiple stages of HPLC. […] L. Slingluff Jr., et al, J. Immunol. […] In FIG. 8B Fractions 2 and 3 from the separation shown in panel A were pooled and rechromatographed with a 55 minute gradient of 0 to 30% acetonitrile/0.1% heptafluorobutyric acid (HFBA) in 0.1% HFBA, collecting one-minute fractions. For both panels, peptide: fractions were incubated for 2–3h with 2×10^3 51Cr-labelled T2 cells in […] assay media per well in 96-well plates.\nCTL lines VMM5 and VMM6 were generated by stimulation with autologous tumor. VMM5 CTL were maintained on allogeneic. A2.1+melanoma DM6 after specificity was obtained, C. L. Slingluff Jr. et al., J. Immunol. […] DM169-13 and DM204-13 CTL were generated by stimulation with allogeneic A2.1+melanoma DM13, N. J. Crowley et al., J. Immunol. […] LD1 CTL were stimulated on a rotating schedule of stimulating allogeneic A2.1+melanomas DM6, DM13, and DM93. DM93 is an HLA-A2.1+melanoma used as a positive control. […] T2 cells were preincubated with the peptides whose (M+H)^+ values are indicated in the legend, FIG. 12. […] Asterisks (*) mark peptides not evaluated."}, "VMM12-EBV": {"tested_on": "VMM12-EBV", "assay": "Screen of Pmel-17/gp100 peptides for sensitizing VMM12-EBV cells for lysis by VMM18 CTL", "format": "cell-based, human", "details": "Table 102 (not given)"}, "VMM12 CTL": {"tested_on": "VMM12 CTL", "assay": "Recognition of Pmel-17 peptide by VMM12 CTL", "format": "cell-based, human", "description": "However, VMM12 CTL do recognize and lyse VMM18 melanoma cells. Because the only Class I MHC molecule shared by VMM12 and VMM18 is HLA-A3, it is evident that at least one additional shared CTL epitope is expressed by both of these tumors."}, "T2-A3 cells": {"tested_on": "T2-A3 cells", "format": "cell-based, human"}, "C1R-A1 cells [1]": {"tested_on": "C1R-A1 cells", "assay": "Chromium release assay: peptide-pulsed C1R-A1 cells, VMM12 CTL", "format": "cell-based, human", "details": "C1R-A1 pulsed with 1 to 0.03 uM peptide; FIG. 23"}, "C1R-A1 cells [2]": {"tested_on": "C1R-A1 cells", "assay": "Chromium release assay: peptide-pulsed C1R-A1 cells, VMM15 CTL", "format": "cell-based, human", "details": "for reconstitution of an epitope for VMM15 CTL: C1R-A1 pulsed with 10 uM, 1 uM and 0.1 uM peptide, FIG. 22"}, "[3]": {"tested_on": "tyrosinase specific CTL clone IVSB", "assay": "Sensitization of target cells for lysis by tyrosinase specific CTL clone IVSB", "format": "cell-based, human", "description": "T. Wolfei, et. al., Eur. J. Immuno. 24, 759 (1994). […] Even when target cells were pretreated with the monoclonal antibody MA2.1 in order to facilitate exogenous peptide binding to HLA-A2.1. T. Wolfei, et al., Eur. J. Immunol."}, "[4]": {"details": "T2-A3, VMM18 CTL, FIG. 18, read-out: half maximal lysis"}, "[5]": {"details": "CTL clone IVSB, read-out: half maximal lysis"}},
  "note": "“Also recorded” adds a separate entry of the source. Like-named read-outs stand apart in the source and are kept apart here. Where no end group is shown, it is not given here.",
  "data": [
    {"molecule": "CC[C@H](C)[C@H](NC(=O)[C@@H](N)Cc1ccc(O)cc1)C(=O)N[C@@H](CCC(=O)O)C(=O)N1CCC[C@H]1C(=O)NCC(=O)N1CCC[C@H]1C(=O)N[C@H](C(=O)N[C@H](C(=O)N[C@@H](C)C(=O)O)[C@@H](C)O)C(C)C", "note": "[946I]", "values": [
      {"measurement": "% specific release (of Cr-51), no CTL", "setting": "T2 cells", "value": 0.1, "unit": "%"}
    ]},
    {"molecule": "CC(C)C[C@H](NC(=O)[C@@H](N)Cc1ccc(O)cc1)C(=O)N[C@@H](CCC(=O)O)C(=O)N1CCC[C@H]1C(=O)NCC(=O)N1CCC[C@H]1C(=O)N[C@H](C(=O)N[C@H](C(=O)N[C@@H](C)C(=O)O)[C@@H](C)O)C(C)C", "note": "[946L]", "values": [
      {"measurement": "% specific release (of Cr-51), no CTL", "setting": "T2 cells", "value": -1.4, "unit": "%"}
    ]},
    {"molecule": "ALLAVGATK [SEQ ID NO:98]", "values": [
      {"measurement": "sensitization of VMM12-EBV for lysis by VMM18 CTL", "setting": "VMM12-EBV", "value": "sensitized VMM12-EBV for lysis by VMM18 CTL"},
      {"measurement": "recognition by CTL from patient VMM12", "setting": "VMM12 CTL", "value": "not recognized"},
      {"measurement": "EC50", "setting": "T2-A3 cells; [4]", "value": "1 to 10", "unit": "nM"},
      {"measurement": "EC50", "setting": "T2-A3 cells; read-out: half-maximal lysis of T2 cells expressing HLA-A3", "value": "~10", "unit": "nM"}
    ]},
    {"molecule": "Ala-Xaa-Tyr-Asp-Ala-Thr-Tyr-Glu-Thr, wherein Xaa=Leu or Ile [compound 1046]", "values": [
      {"measurement": "reconstitution of recognition by CTL lines from 3 additional patients", "setting": "T2 cells", "value": "neither 864 nor 1046 had any detectable activity"},
      {"measurement": "effect on epitope reconstitution", "setting": "T2 cells", "value": "no effect"}
    ]},
    {"molecule": "DAEKCDICTDEY (cysteine pairing not given here) [SEQ ID NO:101]", "values": [
      {"measurement": "reconstitution of an epitope for VMM12 CTL", "setting": "C1R-A1 cells [1]", "value": "reconstituted an epitope for these VMM12 CTL, although weakly"},
      {"measurement": "reconstitution of an epitope for VMM15 CTL", "setting": "C1R-A1 cells [2]", "value": "also recognized; also recorded: reconstituted"}
    ]},
    {"molecule": "EKCDICTDEY (cysteine pairing not given here) [SEQ ID NO:102]", "values": [
      {"measurement": "reconstitution of an epitope for VMM15 CTL", "setting": "C1R-A1 cells [2]", "value": "also recognized; also recorded: reconstituted"}
    ]},
    {"molecule": "KCDICTDEY [SEQ ID NO:93]", "values": [
      {"measurement": "half-maximal lysis", "setting": "C1R-A1 cells [2]", "value": "approximately 1 ug/ml"},
      {"measurement": "reconstitution of an epitope for VMM15 CTL", "setting": "C1R-A1 cells [2]", "value": "most effective, even at the lowest concentration tested; also recorded: reconstituted"},
      {"measurement": "reconstitution of an epitope for VMM15 CTL", "setting": "C1R-A1 cells [2]; listed as KCDICTDEY", "value": "reconstitutes an epitope for VMM15 CTL"},
      {"measurement": "EC50", "setting": "C1R-A1 cells [2]; read-out: half-maximal lysis", "value": "~1000", "unit": "nM"}
    ]},
    {"molecule": "LLAVGATK [SEQ ID NO:4]", "values": [
      {"measurement": "sensitization of VMM12-EBV for lysis by VMM18 CTL", "setting": "VMM12-EBV", "value": "sensitized VMM12-EBV for lysis by VMM18 CTL"},
      {"measurement": "EC50", "setting": "T2-A3 cells; [4]", "value": "> 1000", "unit": "nM"}
    ]},
    {"molecule": "SMAPGNTSV [compound 864]", "values": [
      {"measurement": "reconstitution of recognition by CTL lines from 3 additional patients", "setting": "T2 cells", "value": "neither 864 nor 1046 had any detectable activity"},
      {"measurement": "effect on epitope reconstitution", "setting": "T2 cells", "value": "no effect"}
    ]},
    {"molecule": "Tyr Xaa Glu Pro Gly Pro Val Thr Ala (YXEPGPVTA; not fully specified; X: randomised place (mixture)) [compound 946]", "values": [
      {"measurement": "reconstitution of recognition by CTL lines from 3 additional patients", "setting": "T2 cells", "value": "reconstituted recognition by each of these 3 lines"},
      {"measurement": "number of CTL lines/patients recognizing the peptide", "setting": "T2 cells", "value": "5 out of 5"},
      {"measurement": "EC50", "setting": "T2 cells; read-out: half-maximal lysis, dose response curves, two of the 3 additional CTL lines", "value": "0.001 to 0.01", "unit": "nM"},
      {"measurement": "EC50", "setting": "T2 cells; read-out: half-maximal lysis, other assays", "value": 0.001, "unit": "nM"}
    ]},
    {"molecule": "Tyr met Asn Gly Thr Met Ser Gln Val [SEQ ID NO:94]", "values": [
      {"measurement": "EC50", "setting": "[3]; [5]", "value": 10000, "unit": "nM"},
      {"measurement": "EC50", "setting": "[3]; target cells pretreated with monoclonal antibody MA2.1, read-out: concentration required to give half-maximal target cell lysis", "value": "> 1000", "unit": "nM"},
      {"measurement": "number of CTL lines/patients recognizing the peptide", "setting": "T2 cells", "value": "None of 4"}
    ]},
    {"molecule": "YMDGTMSQV [SEQ ID NO:9]", "values": [
      {"measurement": "EC50", "setting": "[3]; [5]", "value": 100, "unit": "nM"}
    ]}
  ]
}
